Tests used:
[1] = test system: FDB muscle fibers from wild type (WT) mice; assay: FM1-43 dye entry after UV-laser damage, wild type FDB muscle fibers; assay type: cell-based
Experimental: (§1) FIG. 20. Protective effect of zinc on membrane repair is lost in mg53−/− skeletal muscle. (a) individual flexor digitorum brevis (FDB) muscle fibers were isolated from wild type (WT) mice (3-6 months). A strong UV laser was applied to the FDB fiber that caused local damage to the muscle (arrow). Entry of FM1-43 fluorescent dye (2.5 μM) was used as an indicator for the measurement of membrane repair capacity. The images were taken 200 s following UV irradiation (control). […] (d) Schematic diagram of zinc-binding motifs in MG53. The amino-terminus of MG53 contains two putative zinc-binding motifs: one located at the RING motif (a.a. 1-56, human cDNA), and the other located at the B-box motif (a.a. 86-117, human cDNA). The specific amino acids that participate in zinc-binding are indicated.
as §1, with “Protective” for “FIG. 20. Protective”, “To access membrane repair capacity,” for “(a)”, “months) (FIG. 20a).” for “months).”, “Summary data for panel a and b (FIG. 20c). […]” for “(d)”, “indicated (FIG. 20d).” for “indicated.”

[2] = test system: FDB muscle fibers from mg53−/− mice; assay: FM1-43 dye entry after UV-laser damage, mg53−/− FDB muscle fibers; assay type: cell-based; conditions: for membrane repair capacity (FM1-43 dye entry): mg53−/− fibers
Experimental: as §1
as §1, with “Protective” for “FIG. 20. Protective”, “To access membrane repair capacity,” for “(a)”, “months) (FIG. 20a).” for “months).”, “Summary data for panel a and b (FIG. 20c). […]” for “(d)”, “indicated (FIG. 20d).” for “indicated.”

[3] = test system: C2C12 cells expressing GFP-MG53; assay: Repair of acute membrane damage: translocation to microelectrode injury site; assay type: cell-based, murine
Experimental: To follow the process of intracellular vesicle translocation associated with repair of acute membrane damage, GFP-MG53 fusion protein was expressed in C2C12 myoblast cells (FIG. 21a). […]
Cell culture—The C2C12 murine myoblast cell line used for all studies was purchased from the American Type Culture Collection (Manassas, Va.). Cells were grown in a humidified environment at 37° C. and 5% CO2 in DMEM medium for C2C12 or Ham's F12 medium for CHO cells supplemented with 10% fetal bovine serum, 100 units/ml penicillin and 100 ug/ml streptomycin. In order to induce myotube differentiation, C2C12 myoblasts were grown to confluence and the medium was switched to DMEM containing 2% horse serum, penicillin (100 U/ml), streptomycin (100 μg/ml). For transient transfections, C2C12 myoblasts or CHO cells were plated at 70% confluence in glass-bottom dishes. After 24 hours, cells were transfected with plasmids described above using GeneJammer reagent (Stratagene). Cells were visualized by live cell confocal imaging at 24-48 hours after transfection or at times indicated for individual experiments. In some experiments, C2C12 myoblasts were allowed to differentiate into myotubes for the indicated time before observation.
Live cell imaging—To monitor intracellular trafficking of GFP-MG53 either CHO or C2C12 cells were cultured in glass-bottom dishes (Bioptechs Inc.) and transfected with the plasmids described above. Fluorescence images (512×512) were captured at 3.18 s/frame using a BioRad 2100 Radiance laser scanning confocal microscope with a 63×1.3NA oil immersion objective.

[4] = test system: C2C12 cells expressing GFP-MG53; assay: GFP-MG53 redistribution on agent application without injury; assay type: cell-based, murine; conditions: 20 μM Zn-HPT, prolonged incubation (15 min)
Description: Extracellular zinc entry is essential for MG53-mediated vesicle translocation to acute membrane injury sites. To follow the process of intracellular vesicle translocation associated with repair of acute membrane damage, GFP-MG53 fusion protein was expressed in C2C12 myoblast cells (FIG. 21a). […] Acute injury of the cell generated by penetration of a microelectrode caused rapid translocation of MG53-containing vesicles at the injury site (arrow, right panel). […] C2C12 cells transiently transfected with GFP-MG53 was incubated with 20 μM Zn-HPT. Under control condition (0 min), GFP-MG53 was distributed in the cytosol, as well as intracellular vesicles (FIG. 21d).
An active ingredient from notoginseng can facilitate MG53-membrane repair function. GFP-MG53 was expressed in C2C12 cells and then these cells were perfused with an alcohol extract from notoginseng. […] Based on this observation, we reasoned that a therapeutic approach with the combination of MG53 and notoginseng may provide additive protective effects in preventing both inflammation and membrane damage to the cells, and thus can improve the function of MG53 when applied in tandem with recombinant MG53 protein or when applied alone as a supplement of pharmaceutical.

[5] = test system: E3-ligase activity of MG53; assay: In vitro ubiquitination with ATP, ubiquitin, E1 and E2 enzymes; assay type: biochemical; conditions: Ubc4 or UbcH5 as E2
Experimental: To test whether MG53 can catalyze ubiquitination in vitro, we prepared a recombinant maltose-binding protein (MBP) fusion protein for MG53. MBP-MG53 was incubated with ATP, ubiquitin, E1 and E2 enzymes, and subjected to immunoblotting with the anti-MBP antibody. […] The exclusion of either ubiquitin, E1 or E2 (UbcH5) from the assay abolished the appearance of such ladders, confirming that the modification acquired by MBP-MG53 was indeed auto-ubiquitination. […] Thus, MG53 is a Ring-finger type ubiquitin ligase that couples with Ubc4/5 sub-family of E2 enzymes.

mg53−/− myotubes = assay: Membrane repair in transfected mg53−/− myotubes; assay type: cell-based, mice; conditions: primary cultured mg53−/− myotubes
Description: The entry of FM4-64, a red-shifted variant of FM1-43, was used as an index of membrane repair capacity in mg53−/− myotubes transfected with GFP-MG53 and GFP-C242A. Following UV-bleaching of the green fluorescence, rapid translocation of GFP-MG53 took place at the injury site, whereas GFP-C242A remained static due to its defective oligomerization properties (FIG. 16E, 17A).
Similar defects with GFP-C29L were also observed in C2C12 myotubes (FIG. 18e, middle).

O=C([O-])CN(CCN(CC(=O)[O-])CC(=O)[O-])CC(=O)[O-].[Ca+2].[Na+].[Na+] [Ca-EDTA]
membrane repair capacity (FM1-43 dye entry) ([1]; WT muscle, Ca-EDTA 100 μM): compromised membrane repair capacity | membrane repair capacity ([2]; mg53−/− muscle, Ca-EDTA): did not produce any significant changes in membrane repair capacity

c1ccc(CN(CCN(Cc2ccccn2)Cc2ccccn2)Cc2ccccn2)nc1 [TPEN, N,N,N,N-tetrakis(2-pyridyl-methyl)ethylenediamine]
translocation of GFP-MG53 containing vesicles toward the mechanical injury site ([3]; 20 μM TPEN in the extracellular solution): completely abolished the translocation | membrane repair capacity (FM1-43 dye entry) ([1]; WT fibers, 40 μM TPEN): compromised membrane repair capacity | membrane repair capacity (FM1-43 dye entry) ([2]; +TPEN): did not produce more entry of FM1-43 dye

[O-]n1ccccc1=S.[O-]n1ccccc1=S.[Zn+2] [Zn-HPT, Zn-1-hydroxypyridine-2-thine]
membrane repair capacity (FM1-43 dye entry) ([1]; WT fibers, 2 μM zinc-ionophore): increased membrane repair capacity | membrane repair capacity (FM1-43 dye entry) ([2]; +Zn-HPT): did not produce protective effect on membrane repair | redistribution of GFP-MG53 [4]: caused redistribution of GFP-MG53 toward the cell surface membrane and the intracellular membrane compartments

B1: C29L: MG53 mutant, Cys-29 in the Ring-finger motif replaced with leucine; GFP fusion, MBP fusion in b268 (protein)
chain: MSAAPGLLRQELSCPLCLQLFDAPVTAELGHSFCRACLIRVAGEPAADGTVACPCCQAPTRPQALSTNLQLSRLVEGLAQVPQGHCEEHLDPLSIYCEQDRTLVCGVCASLGSHRGHRLLPAAEAQARLKTQLPQQKMQLQEACMRKEKTVAVLEHQLVEVEETVRQFRGAVGEQLGKMRMFLAALESSLDREAERVRGDAGVALRRELSSLNSYLEQLRQMEKVLEEVADKPQTEFLMKFCLVTSRLQKILSESPPPARLDIQLPVISDDFKFQVWKKMFRALMPALEELTFDPSSAHPSLVVSSSGRRVECSDQKAPPAGEDTRQFDKAVAVVAQQLLSQGEHYWEVEVGDKPRWALGVMAADASRRGRLHAVPSQGLWLLGLRDGKILEAHVEAKEPRALRTPERPPARIGLYLSFADGVLAFYDASNPDVLTPIFSFHERLPGPVYPIFDVCWHDKGKNAQPLLLVGPEQEQA
modifications: left off: large carriers
notes: MG53 mutant, Cys-29 in the Ring-finger motif replaced with leucine; GFP fusion, MBP fusion
Membrane Repair (+Zn-HPT) ([3]; C2C12 cells, 2 μM Zn-HPT, listed as GFP-C29L): partially rescue the movement | translocation to injury site and membrane repair function of GFP fusion protein ([3]; C2C12 cells, acute membrane damage): immobile and ineffective in repair of membrane injury | Membrane Repair (−Zn-HPT) ([3]; C2C12 cells, extracellular solution with nominal free zinc, listed as GFP-C29L): defective movement toward the acute injury site | ubiquitination / intrinsic E3-ligase activity [5]: significantly reduced | translocation to the plasma membrane following injury (mg53−/− myotubes): remained generally unresponsive to acute cell injury

From patent US9458465B2, “Compositions and methods to modulate cell membrane resealing” (RUTGERS, THE STATE UNIVERSITY OF NEW JERSEY, priority 2007, dated 2016)
